Holding throughout (assay): growth of human tumour cells (NCI), 48 h
For assay [1], the system named is SF-539 CNS.
The test system of assay [2] is DLD-1 colon.
Assay [3] relates to DMS 114 small cell lung.
The test system of assay [4] is DMS 273 small cell lung.
Assay [5] deals with HOP-18 NSCLC.
For assay [6], the system named is KM20L2 colon.
For assay [7], the system named is LXFL 529 NSCLC.
In assay [8] the test system is M19-MEL melanoma.
The test system of assay [9] is RXF-631 renal.
The subject of assay [10] is XF 498 CNS.
Assay [11] relates to SNB-78 CNS.

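A five-concentration, 48-hour dose response in 96-well plates underlies each endpoint, interpolated linearly between surrounding concentrations. TGI is the concentration that stops growth completely.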

In [1], `O=C1C(Cl)=CC2(C=C1Cl)CCN=c1c(O)c3c(c(O)c12)=NC=N3` displayed a TGI of 88.4 µM. On to `Cc1[nH]c(=O)c2oc3cc4ccccc4cc3c2c1C(=O)O`, for which the TGI in [1] is more than 10 µM. Same read-out and setting: the value for `COC(=O)/C(=N\N)C(C(=O)C(=O)Nc1cc(Cl)ccc1Cl)c1nc2ccc([N+](=O)[O-])cc2[nH]c1=O` (configuration not stated) was more than 100 µM; that for `Cc1cc2nnn(C3CCCCO3)c2cc1C` (configuration not stated) was more than 100 µM; that for `COC(=O)c1sc(=S)sc1SCc1cccc(CSc2sc(=S)sc2C(=O)OC)c1` was 62.6 µM. Consider `C/C=C1/C=CC2c3[nH]c4ccccc4c3CCN2C1` (configuration not stated), for which the TGI is more than 400 µM in assay [2]; more than 400 µM in [3]; more than 400 µM in assay [4]; 279 µM in [5]; more than 400 µM in assay [6]; more than 400 µM in [7]. In addition, the TGI in [8], in assay [9], in [1] and in assay [10] was more than 400 µM each time. As to `C=C1CC[C@@H]2[C@](C)(COC(=O)CCC(=O)OC)CCC[C@@]2(C)[C@@H]1CCC1=CC(=O)OC1`, the TGI in [1] is more than 100 µM. `Cc1cn([C@H]2C[C@@H](N3C(=O)c4ccccc4C3=O)[C@@H](CO[Si](C)(C)C(C)(C)C)O2)c(=O)[nH]c1=O` showed a TGI in [1] of more than 100 µM. Still for that read-out and setting: the value for `COC(=O)C(=O)C(C(=O)C(=O)Nc1cccc(OC)c1)c1nc2ccc(Cl)cc2[nH]c1=O` (configuration not stated) was more than 100 µM. For `COC(=O)N/N=c1\cc(C(=O)Nc2ccc(C)c(C)c2)oc2cc(O)ccc12`, the TGI in [2], in [3], in assay [4], in [5], in [6] and in assay [7] was more than 100 µM in each case. In addition, the TGI in assay [8], in assay [9], in assay [1], in assay [11] and in assay [10] was more than 100 µM throughout. Consider `CS(=O)(=O)CCC1CCC(=O)O1` (configuration not stated), for which the TGI in assay [1] was more than 100 µM.

`N/C(CCSCCSCC/C(N)=N\O)=N\O` registered a TGI in assay [1] of more than 100 µM. With `O=C(/C=C/c1ccccc1)CCN1CCCCC1`, in [1], the TGI is 37.7 µM. As to `Cc1cc(C=O)c2c(=O)c3c(O)ccc(/C=C/C(C)C)c3oc2c1`, the TGI in assay [2], in [3], in [4], in assay [6], in assay [7] and in [8] was more than 100 µM each time. In assay [1], this molecule displayed a TGI of more than 100 µM.

Turning to `CC1(c2ccc(Cl)cc2)C=C(c2ccc(Cl)cc2)C(C#N)=C(C(C#N)C#N)N1` (configuration not stated), the TGI in assay [1] worked out at 43.9 µM. On to `CCOc1ccc(OP2(=O)NC(=O)C=C(C)N2)cc1` (configuration not stated), for which the TGI in [2], in assay [3], in [4], in assay [5], in [6] and in assay [7] was more than 100 µM throughout. For the same molecule, the TGI in assay [8], in [9], in assay [1], in [11] and in assay [10] was more than 100 µM in each case. For the molecule `Clc1ccc(C(OCn2ccnc2)c2nc3ccccc3[nH]2)c(Cl)c1` (configuration not stated), the TGI in assay [1] is more than 100 µM. Molecule `N#CC1=C(S)N(C2OC(CO)C(O)C(O)C2O)C(c2ccccc2)=CC1c1ccco1` (configuration not stated) yielded a TGI in assay [1] of more than 100 µM. Same read-out and setting: the value for `CCCCCC(=O)OC[n+]1cccc(-c2c(COC(=O)NC(C)C)c(COC(=O)NC(C)C)c3n2CCC3)c1` was more than 72.5 µM; that for `Cc1ccc2c(=O)cc(-c3cc(C)sc3C)[nH]c2n1` was 6.25 µM; that for `CC(C)(C)OC(=O)/N=C/c1c(O)c2ccccc2oc1=O` was more than 100 µM. Same read-out and setting: the value for `Cc1nc2ccccc2n1Cc1nnc(-c2ccccc2)o1` was more than 100 µM; that for `Cc1nc2ccc(S(=O)(=O)O)cc2c(=O)n1-c1ccc(C(=O)NN2C(=O)C(Cl)C2c2cccs2)cc1` (configuration not stated) was more than 100 µM; that for `O=C(NC1CCCCC1)c1n[nH]nc1Cl` was more than 100 µM. Still for that read-out and setting: the value for `COc1cc(Nc2cc(Cl)cc(Cl)c2)nc(N)n1` was 33 µM; that for `C(=NC12CC3CC(CC(C3)C1)C2)C1CCCCC1` was more than 100 µM. `O=C(c1c(F)c(F)c(F)c(F)c1F)n1c(=S)n(C(=O)c2c(F)c(F)c(F)c(F)c2F)c2ccccc21` displayed a TGI in [1] of more than 100 µM. On the same count and under the same terms, the value for `CC1C(OS(=O)(=O)c2ccc3[nH]c(=S)sc3c2)CC2C3(C)CCC2(C(C)C(=O)O)C(O)C13` (configuration not stated) was 46 µM; that for `COc1ccc(NC(=S)c2ccc([N+](=O)[O-])o2)cc1` was 0.549 µM; that for `CN(CC(=O)Nc1ccccc1C(=O)O)c1ccccc1` was more than 100 µM. In [1], `Fc1ccc2c(c1)SC1=Nc3sc4cc(F)ccc4[n+]3CN12` displayed a TGI of 28.3 µM. The molecule `CCOc1ccc(NC(=O)C(=O)C(/C(=N/N)C(=O)OC)c2nc3ccc([N+](=O)[O-])cc3[nH]c2=O)cc1` (configuration not stated) registered a TGI in assay [1] of more than 100 µM. The same measure, in the same setting: under `Nc1ccc2c(=S)c3ccccc3[nH]c2c1` stands more than 100 µM. The same measure, in the same setting: the value for `CCCN1C(=O)CN(S(=O)(=O)c2ccc(Cl)cc2)C1=O` was more than 100 µM; that for `CCOC(=O)c1cn(-c2ccc([N+](=O)[O-])cc2)c(=S)n2c1nc1ccccc12` was more than 100 µM; that for `CN(/N=C/c1ccccn1)C1=NCCN1` was more than 100 µM.

`CCc1nc(N)nc(N)c1-c1ccc(N2CCOCC2)c(N=[N+]=[N-])c1` came in with a TGI in assay [1] of more than 100 µM. On the same count and under the same terms, under `CC(C)(C)n1c(=O)n2c(-c3ccccc3)c(-c3ccccc3)n2c1=O` stands more than 100 µM; under `COC(=O)c1ccc(CCC2=CC(=O)C=CC2=O)cc1`, 25.6 µM. Turning to `NC(CCC(=O)O)C(=O)NC(Cc1ccc(N(CCCl)CCCl)cc1)C(=O)O` (configuration not stated), the TGI in assay [1] was more than 100 µM. The same measure, in the same setting: the value for `C#CCN(C(=O)C(F)(F)F)C(/C=C\C(=O)OC)(C(=O)OCC)C(=O)OCC` was more than 100 µM. Take `COc1ccc(/C=C2\C[C@H]3[C@@H]4CC=C5C[C@@H](O)CC[C@]5(C)[C@H]4CC[C@]3(C)\C2=N\O)cc1`: the TGI in assay [1] was more than 100 µM.

Regarding `COC(=O)c1c(C)cccc1C1CN=NC12Cc1cc(C)c(C)cc1C2=O` (configuration not stated), the TGI in assay [1] was more than 100 µM. Still for that read-out and setting: the value for `CC[C@@H]1CC[C@@H]2[C@H](CC[C@]3(C)[C@@H](O[N+](=O)[O-])CC[C@@H]23)[C@H]1C(C)=O` was more than 100 µM. On the same count and under the same terms, under `Cc1cccc(C)c1NC(=O)C(=O)CC(=O)c1sc(Nc2c(C)cccc2C)nc1C` stands more than 100 µM.

Regarding `CCCCCCC1OC23OC1CCC2C(O)CCC3O` (configuration not stated), the TGI in [1] was more than 100 µM. Still for that read-out and setting: the value for `COC(=O)C1=C(OC)C(=P2(c3ccccc3)CC(c3ccccc3)=C2c2ccccc2)C(C(=O)OC)=C1C(=O)OC` (configuration not stated) was more than 95.5 µM; that for `O=C1CSC(c2cc3cc(Br)ccc3nc2Cl)N1c1ccc(Cl)cc1` (configuration not stated) was 37.8 µM; that for `Cc1nn(C(=O)Cc2ccccc2)c2c1C(c1ccc(/C=C/c3ccccc3)cc1)SC(N)=N2` (configuration not stated) was more than 100 µM. On the same count and under the same terms, the value for `COc1cc(S(=O)(=O)Nc2nc(-c3ccc(N=Cc4ccccc4O)cc3)cs2)ccc1Cl` was more than 100 µM. On the same count and under the same terms, under `O=c1oc2ccccc2c(-c2ccc(O)cc2)c1Oc1ccccc1` stands more than 75.5 µM. As for `CC(=O)Oc1ccc(-c2nnc(-c3ccc(OC(C)=O)cc3)nn2)cc1`, the TGI in assay [1] was more than 100 µM.

With `CCN(CC)c1ccc(Cl)c2c1C(O)(C(C)C)C2(C)C` (configuration not stated), the TGI in assay [2] was determined as 31.4 µM; in assay [3], 36.5 µM; in [4] it was 29.5 µM; in assay [5], 27.3 µM; in assay [6], 27.8 µM; in assay [7], 31.5 µM. In addition, the TGI in [8] worked out at 29.4 µM; in assay [1], 34.2 µM; in assay [11], 69.4 µM. Consider `O[C@@H]1[C@H](OC2c3ccccc3-c3ccccc32)[C@H](OCc2ccccc2)[C@@H]2OC[C@H]1O2`, for which the TGI in [1] came to 81.7 µM. As for `CCCCCCCCCCCCCCCCOP(=O)([O-])OCC[N+](C)(C)C1CC(C)(C)N(O)C(C)(C)C1`, the TGI in assay [1] is more than 100 µM.

The molecule `O=C(Nc1ccc(Cl)cc1Cl)C1C(=O)OC2(CCCCC2)OC1=O` had a TGI in assay [1] of 23.6 µM. Still for that read-out and setting: the value for `COC(=O)/C=C1\C(CO[Si](C)(C)C(C)(C)C)OC(n2ccc(=O)[nH]c2=O)C1O` (configuration not stated) was 30.2 µM; that for `COc1ccc(OC)c(/C=C2/C(=O)N=C(NC(C)=O)N2C)c1` was more than 100 µM. On the same count and under the same terms, the value for `NCCc1ccc(S(=O)(=O)O)cc1[N+](=O)[O-]` was more than 100 µM; that for `CC(C)=CCC[C@@H](C)C1=C(N)C(O)=C(C)C(=O)C1=O` was more than 75 µM. In assay [1], `N/C(=N\N=C\c1nc2ccccc2o1)c1cnccn1` came in with a TGI of more than 100 µM. As to `CCN(C(=O)N[C@@H](CC(C)C)C(=O)NCC(=O)OC)c1ccccc1`, the TGI in assay [1] is more than 100 µM.

As to `Cc1nc2ccc(N=Nc3c(C)noc3C)cc2[nH]1`, the TGI in assay [1] stood at 70.7 µM. Same read-out and setting: the value for `CO/C(N)=C(\C#N)N=Cc1ccsc1` was more than 100 µM.

Take `CC(=O)Nc1nc2c(=O)c3ccccc3sc2s1`: the TGI in assay [1] was more than 100 µM. Consider `CCN(CC)/[N+]([O-])=N/OS(=O)(=O)N(C)C`, for which the TGI in [1] was more than 100 µM. On to `C[C@H]1CCC/C=C/[C@@H]2C[C@H](OC(=O)CN(C)C)C[C@H]2[C@H](O)/C=C/C(=O)O1`, for which, in assay [1], the TGI is more than 48.2 µM.

Turning to `N#CCC(=O)N/N=C\C(O)C(O)C(O)C(O)CO` (configuration not stated), the TGI in assay [1] is more than 100 µM. Regarding `O=C(O)c1ccccc1/C=C1\Cc2cc3c(cc2C1=O)CCC3`, in assay [1], the TGI was 80.4 µM. Still for that read-out and setting: the value for `CCOC(=O)c1nc2ccc(C(F)(F)F)cc2nc1Oc1ccc(OC)cc1` was more than 100 µM. On the same count and under the same terms, under `O=[N+]([O-])c1ccc2c3c1[C@@H]1O[C@@H]1c1cccc(c1-3)[C@@H]1O[C@H]21` stands 4.02 µM. The same measure, in the same setting: under `CC1OC(OC2C(OC(=O)[C@]34CCC(C)(C)C[C@H]3C3=CC[C@@H]5[C@@]6(C)CC[C@H](OC7OC(CO)C(O)C(O)C7OC7OC(CO)C(O)C(O)C7O)C(C)(C)[C@@H]6CC[C@@]5(C)[C@]3(C)CC4)OCC(O)C2O)C(O)C(O)C1OC1OCC(O)C(O)C1O` (some centres not stated) stands more than 100 µM; under `Nc1nccc(NCC2(CO)CC(CCc3ccccc3)C2)n1` (configuration not stated), 32.1 µM. Take `c1ccc(C(NC2=NCCO2)C2CC2)cc1` (configuration not stated): the TGI in assay [1] is more than 100 µM.

For the origin of these results see PubChem BioAssay (NCI).
